Values after ≈ are worked out from the molar mass of the structure shown.
What was measured:
Type in all cases: functional
Pseudomonas fluorescens [1] = experiment: Antibacterial activity against Pseudomonas fluorescens at 25 ug/disk after 24 hr by disk diffusion method; conditions: read-out: DIZ
Escherichia coli [2] = experiment: Antibacterial activity against Escherichia coli by microdilution method
Escherichia coli [3] = experiment: Antibacterial activity against Escherichia coli at 25 ug/disk after 24 hr by disk diffusion method; conditions: read-out: DIZ
Bacillus subtilis [4] = experiment: Antibacterial activity against Bacillus subtilis at 25 ug/disk after 24 hr by disk diffusion method; conditions: read-out: DIZ
Pseudomonas fluorescens [5] = experiment: Antibacterial activity against Pseudomonas fluorescens by microdilution method
Bacillus subtilis [6] = experiment: Antibacterial activity against Bacillus subtilis by microdilution method
Fusarium oxysporum [7] = experiment: Antifungal activity against Fusarium oxysporum after 48 hr by microdilution method
Xanthomonas oryzae [8] = experiment: Antibacterial activity against Xanthomonas oryzae at 25 ug/disk after 24 hr by disk diffusion method; conditions: read-out: DIZ
Penicillium sp. [9] = experiment: Antifungal activity against Penicillium sp. after 48 hr by microdilution method
Aspergillus flavus [10] = experiment: Antifungal activity against Aspergillus flavus at 25 ug/disk after 48 hr by disk diffusion method; conditions: for zone of inhibition at 25 µg/disc: read-out: DIZ
Xanthomonas oryzae [11] = experiment: Antibacterial activity against Xanthomonas oryzae by microdilution method
Aspergillus niger [12] = experiment: Antifungal activity against Aspergillus niger after 48 hr by microdilution method
Aspergillus niger [13] = experiment: Antifungal activity against Aspergillus niger at 25 ug/disk after 48 hr by disk diffusion method; conditions: for zone of inhibition at 25 µg/disc: read-out: DIZ
Aspergillus flavus [14] = experiment: Antifungal activity against Aspergillus flavus after 48 hr by microdilution method
Trichoderma [15] = experiment: Antifungal activity against Trichoderma sp. after 48 hr by microdilution method
Penicillium sp. [16] = experiment: Antifungal activity against Penicillium sp. at 25 ug/disk after 48 hr by disk diffusion method; conditions: for zone of inhibition at 25 µg/disc: read-out: DIZ
Trichoderma [17] = experiment: Antifungal activity against Trichoderma sp. at 25 ug/disk after 48 hr by disk diffusion method; conditions: for zone of inhibition at 25 µg/disc: read-out: DIZ
[18] = system: Xanthomonas euvesicatoria pv. sesami; experiment: Antibacterial activity against Xanthomonas campestris pv. sesami at 25 ug/disk after 24 hr by disk diffusion method; conditions: read-out: DIZ
Fusarium oxysporum [19] = experiment: Antifungal activity against Fusarium oxysporum at 25 ug/disk after 48 hr by disk diffusion method; conditions: for zone of inhibition at 25 µg/disc: read-out: DIZ
Fusarium verticillioides [20] = experiment: Antifungal activity against Fusarium verticillioides after 48 hr by microdilution method
[21] = system: Xanthomonas euvesicatoria pv. sesami; experiment: Antibacterial activity against Xanthomonas campestris pv. sesami by microdilution method
Fusarium verticillioides [22] = experiment: Antifungal activity against Fusarium verticillioides at 25 ug/disk after 48 hr by disk diffusion method; conditions: for zone of inhibition at 25 µg/disc: read-out: DIZ

Molecule	zone of inhibition at 25 µg/disc (Pseudomonas fluorescens [1]) [mm]	MIC (Escherichia coli [2]) [µg/mL]	zone of inhibition at 25 µg/disc (Escherichia coli [3]) [mm]	zone of inhibition at 25 µg/disc (Bacillus subtilis [4]) [mm]	MIC (Pseudomonas fluorescens [5]) [µg/mL]	MIC (Bacillus subtilis [6]) [µg/mL]	MIC (Fusarium oxysporum [7]) [µg/mL]	zone of inhibition at 25 µg/disc (Xanthomonas oryzae [8]) [mm]	MIC (Penicillium sp. [9]) [µg/mL]	zone of inhibition at 25 µg/disc (Aspergillus flavus [10]) [mm]	MIC (Xanthomonas oryzae [11]) [µg/mL]	MIC (Aspergillus niger [12]) [µg/mL]	zone of inhibition at 25 µg/disc (Aspergillus niger [13]) [mm]	MIC (Aspergillus flavus [14]) [µg/mL]	MIC (Trichoderma [15]) [µg/mL]	zone of inhibition at 25 µg/disc (Penicillium sp. [16]) [mm]	zone of inhibition at 25 µg/disc (Trichoderma [17]) [mm]	zone of inhibition at 25 µg/disc [18] [mm]	MIC (Fusarium verticillioides [20]) [µg/mL]	MIC [21] [µg/mL]	also measured
CN[C@@H]1[C@H](O[C@H]2[C@H](O[C@H]3[C@H](O)[C@@H](O)[C@H](N=C(N)N)[C@@H](O)[C@@H]3N=C(N)N)O[C@@H](C)[C@]2(O)C=O)O[C@@H](CO)[C@H](O)[C@H]1O [STREPTOMYCIN]	17	13 (≈ 22.4 µM)	14	13	12 (≈ 20.6 µM)	19 (≈ 32.7 µM)	–	–	–	–	–	–	–	–	–	–	–	–	–	–	–
CCc1ccc(CCOc2ccc(C3=NOC(c4ccccc4)C3)cc2)nc1 (stereo unspecified)	6	28 (≈ 75.2 µM)	6	5	26 (≈ 69.8 µM)	27 (≈ 72.5 µM)	21 (≈ 56.4 µM)	4	23 (≈ 61.8 µM)	4	25 (≈ 67.1 µM)	22 (≈ 59.1 µM)	3	24 (≈ 64.4 µM)	20 (≈ 53.7 µM)	3	6	4	20 (≈ 53.7 µM)	27 (≈ 72.5 µM)	zone of inhibition at 25 µg/disc (Fusarium oxysporum [19]): 4 mm; zone of inhibition at 25 µg/disc (Fusarium verticillioides [22]): 3 mm
CCc1ccc(CCOc2ccc(C3=NOC(Cc4ccc(O)c(OC)c4)C3)cc2)nc1 (stereo unspecified)	18	14 (≈ 32.4 µM)	14	12	12 (≈ 27.7 µM)	18 (≈ 41.6 µM)	12 (≈ 27.7 µM)	12	11 (≈ 25.4 µM)	10	13 (≈ 30.1 µM)	16 (≈ 37 µM)	7	15 (≈ 34.7 µM)	13 (≈ 30.1 µM)	9	15	13	10 (≈ 23.1 µM)	10 (≈ 23.1 µM)	zone of inhibition at 25 µg/disc (Fusarium oxysporum [19]): 13 mm; zone of inhibition at 25 µg/disc (Fusarium verticillioides [22]): 11 mm
CCc1ccc(CCOc2ccc(C3=NOC(Cc4ccc(OC)c(OC)c4)C3)cc2)nc1 (stereo unspecified)	14	15 (≈ 33.6 µM)	15	14	15 (≈ 33.6 µM)	20 (≈ 44.8 µM)	13 (≈ 29.1 µM)	9	12 (≈ 26.9 µM)	7	15 (≈ 33.6 µM)	18 (≈ 40.3 µM)	6	17 (≈ 38.1 µM)	15 (≈ 33.6 µM)	8	13	10	11 (≈ 24.6 µM)	11 (≈ 24.6 µM)	zone of inhibition at 25 µg/disc (Fusarium oxysporum [19]): 12 mm; zone of inhibition at 25 µg/disc (Fusarium verticillioides [22]): 10 mm
CCc1ccc(CCOc2ccc(C3=NOC(C#N)C3)cc2)nc1 (stereo unspecified)	6	21 (≈ 65.3 µM)	7	7	23 (≈ 71.6 µM)	27 (≈ 84 µM)	19 (≈ 59.1 µM)	4	20 (≈ 62.2 µM)	3	22 (≈ 68.5 µM)	20 (≈ 62.2 µM)	2	21 (≈ 65.3 µM)	20 (≈ 62.2 µM)	2	4	5	18 (≈ 56 µM)	20 (≈ 62.2 µM)	zone of inhibition at 25 µg/disc (Fusarium oxysporum [19]): 5 mm; zone of inhibition at 25 µg/disc (Fusarium verticillioides [22]): 10 mm
CCc1ccc(CCOc2ccc(C3=NOC(C(=O)OC)C3)cc2)nc1 (stereo unspecified)	5	24 (≈ 67.7 µM)	6	5	22 (≈ 62.1 µM)	27 (≈ 76.2 µM)	20 (≈ 56.4 µM)	3	24 (≈ 67.7 µM)	4	27 (≈ 76.2 µM)	22 (≈ 62.1 µM)	3	24 (≈ 67.7 µM)	20 (≈ 56.4 µM)	2	5	3	22 (≈ 62.1 µM)	22 (≈ 62.1 µM)	zone of inhibition at 25 µg/disc (Fusarium oxysporum [19]): 4 mm; zone of inhibition at 25 µg/disc (Fusarium verticillioides [22]): 3 mm
NYSTATIN	–	–	–	–	–	–	11	–	10	–	–	15	–	15	12	–	–	–	9	–	inhibition zone (IZ) (Aspergillus flavus [10]): 10 mm; inhibition zone (IZ) (Aspergillus niger [13]): 8 mm; inhibition zone (IZ) (Penicillium sp. [16]): 10 mm; inhibition zone (IZ) (Trichoderma [17]): 16 mm; inhibition zone (IZ) (Fusarium oxysporum [19]): 14 mm; inhibition zone (IZ) (Fusarium verticillioides [22]): 12 mm
CCc1ccc(CCOc2ccc(C3=NOC(CO)C3)cc2)nc1 (stereo unspecified)	17	14 (≈ 42.9 µM)	13	14	12 (≈ 36.8 µM)	18 (≈ 55.1 µM)	10 (≈ 30.6 µM)	13	9 (≈ 27.6 µM)	9	12 (≈ 36.8 µM)	15 (≈ 46 µM)	8	16 (≈ 49 µM)	13 (≈ 39.8 µM)	11	15	13	10 (≈ 30.6 µM)	10 (≈ 30.6 µM)	zone of inhibition at 25 µg/disc (Fusarium oxysporum [19]): 15 mm; zone of inhibition at 25 µg/disc (Fusarium verticillioides [22]): 12 mm
CCc1ccc(CCOc2ccc(C3=NOC(Cc4ccc5c(c4)OCO5)C3)cc2)nc1 (stereo unspecified)	7	22 (≈ 51.1 µM)	6	5	20 (≈ 46.5 µM)	25 (≈ 58.1 µM)	22 (≈ 51.1 µM)	3	21 (≈ 48.8 µM)	3	22 (≈ 51.1 µM)	22 (≈ 51.1 µM)	3	21 (≈ 48.8 µM)	20 (≈ 46.5 µM)	2	4	4	18 (≈ 41.8 µM)	21 (≈ 48.8 µM)	zone of inhibition at 25 µg/disc (Fusarium oxysporum [19]): 4 mm; zone of inhibition at 25 µg/disc (Fusarium verticillioides [22]): 3 mm
CN(C)[C@@H]1C(O)=C(C(N)=O)C(=O)[C@@]2(O)C(O)=C3C(=O)c4c(O)cccc4[C@@](C)(O)[C@H]3C[C@@H]12 [TETRACYCLINE]	–	–	–	–	–	–	–	12	–	–	13 (≈ 29.3 µM)	–	–	–	–	–	–	12	–	9 (≈ 20.3 µM)	–

Source: ChEMBL document CHEMBL3045518, “Synthesis of novel 3-[5-ethyl-2-(2-phenoxy-ethyl)-pyridin]-5-substituted isoxazoline libraries via 1,3-dipolar cycloaddition and evaluation of antimicrobial activities” (2006)
